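Briefly, cells in 96-well plates were exposed to five compound concentrations for 48 h, and endpoints were estimated by linear interpolation. TGI: total growth inhibition.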
Legend:
Test in all cases: NCI tumour cell line growth inhibition, 48 h
A549 NSCLC = test system: A549 NSCLC
SR leukemia = test system: SR leukemia
TK-10 renal = test system: TK-10 renal
NCI/ADR-RES ovarian = test system: NCI/ADR-RES ovarian
SK-MEL-5 melanoma = test system: SK-MEL-5 melanoma
COLO 205 colon = test system: COLO 205 colon
IGROV1 ovarian = test system: IGROV1 ovarian
HOP-92 NSCLC = test system: HOP-92 NSCLC
SNB-19 CNS = test system: SNB-19 CNS
SF-539 CNS = test system: SF-539 CNS
MCF7 breast = test system: MCF7 breast
HCT-15 colon = test system: HCT-15 colon
A498 renal = test system: A498 renal
RXF 393 renal = test system: RXF 393 renal
HCT-116 colon = test system: HCT-116 colon
U251 CNS = test system: U251 CNS
SF-295 CNS = test system: SF-295 CNS
KM12 colon = test system: KM12 colon
CAKI-1 renal = test system: CAKI-1 renal
UACC-62 melanoma = test system: UACC-62 melanoma
CCRF-CEM leukemia = test system: CCRF-CEM leukemia
LOX IMVI melanoma = test system: LOX IMVI melanoma
OVCAR-3 ovarian = test system: OVCAR-3 ovarian
SNB-75 CNS = test system: SNB-75 CNS
ACHN renal = test system: ACHN renal
RPMI-8226 leukemia = test system: RPMI-8226 leukemia
EKVX NSCLC = test system: EKVX NSCLC
SK-MEL-2 melanoma = test system: SK-MEL-2 melanoma
UO-31 renal = test system: UO-31 renal
MALME-3M melanoma = test system: MALME-3M melanoma
HCC-2998 colon = test system: HCC-2998 colon
PC-3 prostate = test system: PC-3 prostate
MDA-MB-435 = test system: MDA-MB-435
MDA-MB-231 breast = test system: MDA-MB-231 breast
K-562 leukemia = test system: K-562 leukemia
OVCAR-4 ovarian = test system: OVCAR-4 ovarian
OVCAR-5 ovarian = test system: OVCAR-5 ovarian
M14 melanoma = test system: M14 melanoma
OVCAR-8 ovarian = test system: OVCAR-8 ovarian
NCI-H522 lung = test system: NCI-H522 lung
NCI-H226 lung = test system: NCI-H226 lung
MOLT-4 leukemia = test system: MOLT-4 leukemia
NCI-H23 lung = test system: NCI-H23 lung
HL-60(TB) leukemia = test system: HL-60(TB) leukemia
SW-620 colon = test system: SW-620 colon
UACC-257 melanoma = test system: UACC-257 melanoma
SK-OV-3 ovarian = test system: SK-OV-3 ovarian
DU-145 prostate = test system: DU-145 prostate
786-0 renal = test system: 786-0 renal
SN12C renal = test system: SN12C renal
BT-549 breast = test system: BT-549 breast

Measured: TGI

CC(=O)/C(C=Nc1c(C)n(C)n(-c2ccccc2)c1=O)=C(/C)O
> 100 µM: all assays above
